Reference: article PMC4872784 (Oncotarget, 2016)
Where “and” joins values, the source holds several entries; their conditions need not be identical. Identical values can stand only once. Like-named read-outs stand apart in the source and are kept apart here.

Tests used:
MOLM14 cells = assay: cell cycle distribution (BrdU/7-AAD flow cytometry); type: cell-based, human; details: for sub-G1-phase cells: vehicle 2%; for S-phase cells: vehicle 38%; for G1-phase cells: vehicle 47%
Method: After cell debris was gated out using FSC/SSC parameters, 10,000 cellular events were collected per sample. Data was analyzed and fluorescence compensation performed using FlowJo software, version 10 (Tree Star, Ashland, OR). A. Representative plots from a single experiment.
Cells were pulse-labeled with 10 μM 5-bromo-2-deoxyuridine (BrdU, BD Pharmingen, San Diego, CA) for 90min (37°C), washed in PBS, then fixed in 70% ethanol (1-3d, −20°C). DNA was denatured (2 M HCl, 30min, room temperature) and neutralized (0.1 M Na2B4O7, 10min, room temperature). Cells were stained with APC-conjugated anti-BrdU antibody (BD Pharmingen) and 7-AAD (BioLegend, San Diego, CA), and analyzed by flow cytometry.

[1] = plasma pharmacokinetics after single oral dose; details: NSG mice
Method: (§8) Plasma samples were obtained from 3-6 male NSG mice per time point (15min-24h after drug administration). Symbols represent concentrations of compound by LC/MS-MS detection.
(§9) Blood samples were collected via retro-orbital bleeding into EDTA-coated tubes. PK samples were centrifuged to obtain plasma, which was stored frozen (−80°C) until liquid chromatography/triple quadrupole mass spectrometry (LC/MS-MS) analysis.
(§10) were separated using an Agilent Zorbax Eclipse C18 column (2.1 mm x 50 mm, 3.5 μm) using gradient mobile phase
(§11) (acetonitrile and 2 mM ammonium acetate both containing 0.1% formic acid) and a gradient flow rate (0.2 to 0.4 ml/
(§12) min). An AB Sciex 5500 triple quadrupole mass spectrometer was used for detection. The m/z transitions used were
(§13) The calibration range was 5–1,000 ng/mL for all analytes. Mean drug concentrations were calculated at each time point. PK parameters (plasma
(§14) half-life [T1/2]; time to reach Cmax [Tmax]; maximum plasma concentration [Cmax]; area under the plasma concentration-
(§15) time curve [AUC] from time zero to the last measurable concentration [AUClast]; AUC from time zero to infinity [i.e.,
(§16) the AUClast + the extrapolated AUC from AUClast to infinity; AUC0–∞]; apparent volume of distribution [Vz/F]; body
(§17) weight-adjusted apparent clearance [CL/F/kg]) were calculated from mean drug concentration-time data using non-
(§18) the r2 of the elimination rate constant (λ ) was < 0.9, the AUC , CL/F, and T were not reported (NR).

ML-2 cells = assay: alamarBlue cytotoxicity assay, 48h; type: cell-based, human; details: ML-2 (AML), RPMI + 10% FBS
Method: (§1) Following subtraction of background fluorescence from all wells, fluorescence of drug-treated cells was normalized to that of vehicle (<0.5% DMSO)-treated cells to determine the effect of each drug concentration on viability. Each cell line was tested in triplicate and in at least three independent experiments. IC50 (concentration that inhibits cell growth by 50%) values were calculated using CompuSyn software (ComboSyn, Paramus, NJ). […] In addition several cell lines were initially cultured and tested in alternative media (Supplementary Table S2). […] Colony counts were normalized to vehicle-treated controls (100%). Three independent experiments were performed.
(§2) In most experiments, cytotoxicity was assessed using alamarBlue assays (Life Technologies, Grand Island, NY). In experiments using NAC and DFO, which can interfere with alamarBlue assay performance, Trypan Blue dye exclusion was used instead. […]
(§3) experiments performed in triplicate. […] Age refers to age […]
(§4) at the time of leukemia diagnosis of the patient from whom the cell line was derived. (–) Indicates information unavailable.
(§5) *Cell lines with FLT3/ITD mutations.
(§6) *The MV-4–11 cell line was derived from a patient with a biphenotypic B-myelomonocytic leukemia; K562 was derived […]
(§7) 1A. p53 status was obtained from http://cancer.sanger.ac.uk/cell_lines/cbrowse/all and http://p53.free.fr/Database/Cancer_ cell_lines/Leukemia_cancer. html. WT: wild type. Mut: mutant. SM: single mutation. DM: double mutation. MM: multiple mutations. Fs: Frameshift mutation. Null: protein expression undetectable.

Kasumi-1 cells = assay: alamarBlue cytotoxicity assay, 48h; type: cell-based, human; details: Kasumi-1 (AML), RPMI + 10% FBS
Method: as §1, §2, §3, §4, §5, §6, §7

RS4;11 cells = assay: alamarBlue cytotoxicity assay, 48h; type: cell-based, human; details: RS4;11 (B-ALL), RPMI + 10% FBS
Method: as §1, §2, §3, §4, §5, §6, §7

OCI-AML3 cells = assay: alamarBlue cytotoxicity assay, 48h; type: cell-based, human
Method: as §1, §2, §3, §4, §5, §6, §7

HL-60 cells = assay: alamarBlue cytotoxicity assay, 48h; type: cell-based, human; details: HL-60 (AML), RPMI + 10% FBS
Method: as §1, §2, §3, §4, §5, §6, §7

SUPB15 cells = assay: alamarBlue cytotoxicity assay, 48h; type: cell-based, human
Method: as §1, §2, §3, §4, §5, §6, §7

NALM-6 cells = assay: alamarBlue cytotoxicity assay, 48h; type: cell-based, human; details: NALM-6 (B-ALL), RPMI + 10% FBS
Method: as §1, §2, §3, §4, §5, §6, §7

REH cells = assay: alamarBlue cytotoxicity assay, 48h; type: cell-based, human
Method: as §1, §2, §3, §4, §5, §6, §7

THP-1 cells = assay: alamarBlue cytotoxicity assay, 48h; type: cell-based, human
Method: as §1, §2, §3, §4, §5, §6, §7

NB-4 cells = assay: alamarBlue cytotoxicity assay, 48h; type: cell-based, human; details: NB-4 (AML), RPMI + 10% FBS
Method: as §1, §2, §3, §4, §5, §6, §7

MV-4-11 cells = assay: alamarBlue cytotoxicity assay, 48h; type: cell-based, human; details: RPMI + 10% FBS
Method: as §1, §2, §3, §4, §5, §6, §7

[2] = system: Jurkat T-cell acute lymphoblastic leukemia (T-ALL) cells; set-up: method as in PMID 23673218; details: cited from earlier work
in vivo [3] = details: male, NSG, mouse, plasma, po, 200 mg/kg
Method: as §8, §9, §10, §11, §12, §13, §14, §15, §16, §17, §18

in vivo [4] = details: NSG, mouse, in vivo, po
Method: Blood samples were collected via
retro-orbital bleeding into EDTA-coated tubes from MOLM14 NSG mice 1 day A-D. and 7 days E-H. after completion of a 5-day drug
CBCs were determined using a Hemavet 950 analyzer.
Normal blood samples were obtained from normal, untreated NSG mice (n = 37) over several years.

[5] = system: Caspase-3/7 activity in MOLM14 cells; assay: Caspase-Glo 3/7 Assay; type: cell-based, human; details: AS 5 μM, 24h
Method: A. Quantification of the percentage of early apoptotic cells (Annexin-V+/7-AAD-) from three independent experiments in which cells were stained for apoptosis with 7-AAD and Annexin-V then analyzed by flow cytometry. […] C. […] 16h after addition of drugs, cells were washed and analyzed by flow cytometry for CM-H2DCFDA fluorescence (indicating total ROS generation) in the FL1 channel. Mean Fluorescence Intensity (MFI) was normalized to that of vehicle control (0.5% DMSO) with no pretreatment. […] Viable cell counts, obtained via Trypan Blue dye exclusion, were normalized to vehicle (0.02% DMSO)-treated samples +/– pretreatment.
Cells were co-stained with […] each 7-AAD and APC-conjugated Annexin-V (BioLegend), in Annexin-V binding buffer and analyzed by flow cytometry. Caspase-3/7 activity was measured using a Caspase-Glo 3/7 Assay (Promega, Madison, WI).

[6] = plasma, single oral dose ART-838 50 mg/kg

C[C@@H]1CCC2[C@@H](C)[C@@H](CC(COP(=O)(Oc3ccccc3)Oc3ccccc3)C[C@H]3O[C@@H]4O[C@@]5(C)CCC6[C@H](C)CCC([C@H]3C)[C@]64OO5)O[C@@H]3O[C@@]4(C)CCC1[C@@]23OO4 (stereo partly shown) [ART-838, artemisinin-derived trioxane diphenylphosphate dimer 838]
sub-G1-phase cells (MOLM14 cells; 0.1 μM ART-838, 24h): > 10%
S-phase cells (MOLM14 cells; 0.1 μM ART-838, 24h): < 7%
G1-phase cells (MOLM14 cells; 0.1 μM ART-838, 24h): > 61%
fold longer T1/2 than DHA ([1]; ART-838 50 mg/kg vs DHA after AS 200 mg/kg, oral): ~6 fold
detection of theoretical metabolites DHA and ART-606 in plasma ([1]; after ART-838 administration, LC/MS-MS): did not detect DHA or ART-606
AUC0–∞ [1, 6]: 951 ng·h/mL
AUClast [1, 6]: 903 ng·h/mL
CL/F/kg [1, 6]: 867 mL/min/kg
Tmax [1, 6]: 1.5 h
Vz/F [1, 6]: 241 L/kg
T1/2 ([1]; plasma, single oral dose ART-838 50 mg/kg, 50 mg/kg): 3.19 h and > 3 h
IC50 (ML-2 cells): 21 ± 11 nM
IC50 (Kasumi-1 cells): 67 ± 23 nM
IC50 (RS4;11 cells): 62 ± 23 nM
IC50 (OCI-AML3 cells; OCI-AML3 (AML), 48h, RPMI + 10% FBS, read-out: IC50): 168 ± 41 nM
-Fold Difference in IC50 between media (OCI-AML3 cells; OCI-AML3, RPMI + 20% FBS vs RPMI+10% FBS): 1.7
IC50 (OCI-AML3 cells; OCI-AML3, original medium RPMI + 20% FBS, read-out: IC50 in original medium): 287 nM
IC50 (HL-60 cells): 107 ± 45 nM
IC50 (SUPB15 cells; SUPB15 (B-ALL), 48h, RPMI + 10% FBS, read-out: IC50): 26 ± 3 nM
-Fold Difference in IC50 between media (SUPB15 cells; SUPB15, RPMI + 20% FBS vs RPMI+10% FBS): 3.0
IC50 (SUPB15 cells; SUPB15, original medium RPMI + 20% FBS, read-out: IC50 in original medium): 77 nM
IC50 (NALM-6 cells): 16 ± 5 nM
IC50 (REH cells; REH (B-ALL), 48h, RPMI + 10% FBS, read-out: IC50): 95 ± 40 nM
-Fold Difference in IC50 between media (REH cells; REH, RPMI + 20% FBS vs RPMI+10% FBS): 1.3
IC50 (REH cells; REH, original medium RPMI + 20% FBS, read-out: IC50 in original medium): 123 nM
IC50 (REH cells; read-out: IC50 in RPMI+10% FBS, REH, Table S2): 95 nM
IC50 (THP-1 cells; THP-1 (AML), 48h, RPMI + 10% FBS, read-out: IC50): 38 ± 9 nM
-Fold Difference in IC50 between media (THP-1 cells; THP-1, RPMI + 10% FBS + 50 μM β-mercaptoethanol vs RPMI+10% FBS): 2.5
IC50 (THP-1 cells; THP-1, original medium RPMI + 10% FBS + 50 μM β-mercaptoethanol, read-out: IC50 in original medium): 95 nM
IC50 (NB-4 cells): 26 ± 7 nM
IC50 (MV-4-11 cells; MV-4-11 (AML/B-ALL)): 25 ± 5 nM
fold lower IC50 than that of AS [2]: ~70 fold

C[C@H]1[C@H](OC(=O)CCC(=O)O)O[C@@H]2O[C@@]3(C)CC[C@H]4[C@H](C)CC[C@@H]1[C@@]24OO3 [AS, artesunate]
AUC(0-t) (in vivo [3]): 34.8 ng·h/mL
Cmax (in vivo [3]): 67 ng/mL and 240 nM
Tmax (in vivo [3]): 0.25 h
MTD (in vivo [4]): 500 to 600 mg/kg
MTD at 5 days/week (in vivo [4]): 150 to 200 mg/kg
sub-G1-phase cells (MOLM14 cells; 5 μM AS, 24h): > 10%
S-phase cells (MOLM14 cells; 5 μM AS, 24h): < 7%
G1-phase cells (MOLM14 cells; 5 μM AS, 24h): > 61%
time by which plasma declined to undetectable levels ([1]; single oral dose AS 200 mg/kg): ≤ 1 h
IC50 (ML-2 cells; Homo sapiens): 1460 ± 210 nM
IC50 (Kasumi-1 cells; Homo sapiens): 1720 ± 230 nM
IC50 (RS4;11 cells; Homo sapiens): 5420 ± 1890 nM
IC50 (OCI-AML3 cells; Homo sapiens, OCI-AML-3, OCI-AML3 (AML), 48h, RPMI + 10% FBS, read-out: IC50): 1810 ± 200 nM
IC50 (OCI-AML3 cells; Homo sapiens, OCI-AML-3, OCI-AML3, original medium RPMI + 20% FBS, read-out: IC50 in original medium): 3560 nM
IC50 (HL-60 cells; Homo sapiens): 3000 ± 600 nM
IC50 (SUPB15 cells; Homo sapiens, SUP-B15, SUPB15 (B-ALL), 48h, RPMI + 10% FBS, read-out: IC50): 7820 ± 1220 nM
IC50 (SUPB15 cells; Homo sapiens, SUP-B15, SUPB15, original medium RPMI + 20% FBS, read-out: IC50 in original medium): 14300 nM
IC50 (NALM-6 cells; Homo sapiens): 5190 ± 430 nM
IC50 (REH cells; Homo sapiens, read-out: IC50 in RPMI+10% FBS, REH, Table S2): 10300 nM
IC50 (REH cells; Homo sapiens, REH (B-ALL), 48h, RPMI + 10% FBS, read-out: IC50): 10300 ± 3000 nM
IC50 (REH cells; Homo sapiens, REH, original medium RPMI + 20% FBS, read-out: IC50 in original medium): 15400 nM
IC50 (THP-1 cells; Homo sapiens, THP-1 (AML), 48h, RPMI + 10% FBS, read-out: IC50): 2200 ± 480 nM
IC50 (THP-1 cells; Homo sapiens, THP-1, original medium RPMI + 10% FBS + 50 μM β-mercaptoethanol, read-out: IC50 in original medium): 11100 nM
IC50 (NB-4 cells; Homo sapiens): 947 ± 141 nM
IC50 (MV-4-11 cells; Homo sapiens, MV4-11, MV-4-11 (AML/B-ALL)): 796 ± 96 nM
caspase-3/7 activity [5]: caspase-3/7 activation
